Measured values published in the supplement of paper PMC10307832.

compound: COc1nc(N)nc2c1ncn2[C@@H]1O[C@H](CO)[C@@H](O)[C@@H]1O [Nelarabine] + Cc1cc(Nc2cc(N3CCN(C)CC3)nc(Sc3ccc(NC(=O)C4CC4)cc3)n2)n[nH]1 [Tozasertib] (partner 0.1 µM); assay: relative viability (nuclei count vs DMSO), 5 days (fraction); higher = more cells survive; conditions: first compound 0.01 µM
How it was run: (§1)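 Medians of duplicate plates are given as relative viability. That measure is the nuclei count in treated wells divided by the count in vehicle wells. Counts were taken on 4× images of lung cancer cell lines in 1536-well plates, 5 days after pin-tool dosing the day after seeding with one drug alone or a fixed anchor-drug dose plus five library-drug doses (not always all listed) in √10 steps.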

| Cell Line | relative viability |
| --- | --- |
| HOP-62 | 0.434 |
| LC-2-ad | 0.464 |
| LCLC-97TM1 | 0.259 |
| LCLC-103H | 0.674 |
| LK-2 | 0.172 |
| LOU-NH91 | 0.787 |
| LU99A | 0.287 |
| LXF-289 | 0.222 |
| NCI-H23 | 0.594 |
| NCI-H322M | 0.554 |
| NCI-H358 | 0.0868 |
| NCI-H441 | 0.691 |
| NCI-H1623 | 0.46 |
| NCI-H1648 | 0.456 |

same assay, conditions: first compound 0.03162 µM

| Cell Line | relative viability |
| --- | --- |
| 201T | 0.692 |
| A-427 | 0.204 |
| ABC-1 | 0.149 |
| BEN | 0.495 |
| CAL-12T | 0.309 |
| COR-L23 | 0.165 |
| COR-L 105 | 0.353 |
| ChaGo-K-1 | 0.205 |
| EKVX | 0.476 |
| EPLC-272H | 0.2 |
| H3255 | 0.896 |
| HARA | 0.112 |
| HCC-15 | 0.268 |
| HCC-44 | 1.25 |
| HCC-78 | 0.415 |
| HCC-366 | 0.0947 |
| HCC-827 | 0.423 |
| HOP-62 | 0.305 |
| LC-2-ad | 0.418 |
| LCLC-97TM1 | 0.148 |
| LCLC-103H | 0.358 |
| LOU-NH91 | 0.675 |
| LU99A | 0.253 |
| LXF-289 | 0.234 |
| NCI-H23 | 0.327 |
| NCI-H322M | 0.485 |
| NCI-H358 | 0.0783 |
| NCI-H441 | 0.704 |
| NCI-H1623 | 0.341 |
| NCI-H1648 | 0.405 |

same assay, conditions: first compound 0.1 µM

| Cell Line | relative viability |
| --- | --- |
| 201T | 0.885 |
| A-427 | 0.169 |
| ABC-1 | 0.162 |
| BEN | 0.551 |
| CAL-12T | 0.316 |
| COR-L23 | 0.168 |
| COR-L 105 | 0.302 |
| ChaGo-K-1 | 0.193 |
| EKVX | 0.449 |
| EPLC-272H | 0.287 |
| H3255 | 0.685 |
| HARA | 0.0991 |
| HCC-15 | 0.377 |
| HCC-44 | 1 |
| HCC-366 | 0.0956 |
| HCC-827 | 0.446 |
| HOP-62 | 0.42 |
| LC-2-ad | 0.414 |
| LCLC-97TM1 | 0.192 |
| LCLC-103H | 0.373 |
| LK-2 | 0.161 |
| LOU-NH91 | 0.675 |
| LU99A | 0.239 |
| LXF-289 | 0.173 |
| NCI-H23 | 0.377 |
| NCI-H322M | 0.407 |
| NCI-H358 | 0.096 |
| NCI-H441 | 0.58 |
| NCI-H1623 | 0.601 |
| NCI-H1648 | 0.43 |

same assay, conditions: first compound 0.3162 µM

| Cell Line | relative viability |
| --- | --- |
| 201T | 1.08 |
| A-427 | 0.175 |
| ABC-1 | 0.146 |
| BEN | 0.546 |
| CAL-12T | 0.303 |
| COR-L23 | 0.22 |
| COR-L 105 | 0.362 |
| ChaGo-K-1 | 0.232 |
| EKVX | 0.372 |
| EPLC-272H | 0.295 |
| H3255 | 0.576 |
| HARA | 0.0991 |
| HCC-15 | 0.412 |
| HCC-44 | 1.11 |
| HCC-78 | 0.384 |
| HCC-366 | 0.17 |

| Cell Line | relative viability |
| --- | --- |
| HCC-827 | 0.366 |
| HOP-62 | 0.364 |
| LC-2-ad | 0.468 |
| LCLC-97TM1 | 0.2 |
| LCLC-103H | 0.479 |
| LK-2 | 0.147 |
| LOU-NH91 | 0.673 |
| LU99A | 0.264 |
| LXF-289 | 0.232 |
| NCI-H23 | 0.369 |
| NCI-H322M | 0.501 |
| NCI-H358 | 0.105 |
| NCI-H441 | 0.61 |
| NCI-H1623 | 0.45 |
| NCI-H1648 | 0.601 |

same assay, conditions: first compound 1 µM

| Cell Line | relative viability |
| --- | --- |
| 201T | 0.926 |
| A-427 | 0.181 |
| ABC-1 | 0.175 |
| BEN | 0.452 |
| CAL-12T | 0.363 |
| COR-L23 | 0.185 |
| COR-L 105 | 0.433 |
| ChaGo-K-1 | 0.231 |
| EKVX | 0.395 |
| EPLC-272H | 0.253 |
| H3255 | 0.515 |
| HARA | 0.105 |
| HCC-15 | 0.39 |
| HCC-44 | 0.867 |
| HCC-78 | 0.401 |
| HCC-366 | 0.112 |

| Cell Line | relative viability |
| --- | --- |
| HCC-827 | 0.476 |
| HOP-62 | 0.402 |
| LC-2-ad | 0.439 |
| LCLC-97TM1 | 0.234 |
| LCLC-103H | 0.47 |
| LK-2 | 0.156 |
| LOU-NH91 | 0.653 |
| LU99A | 0.279 |
| LXF-289 | 0.233 |
| NCI-H23 | 0.509 |
| NCI-H322M | 0.456 |
| NCI-H358 | 0.0898 |
| NCI-H441 | 0.697 |
| NCI-H1623 | 0.406 |
| NCI-H1648 | 0.383 |

compound: C=CCn1c(=O)c2cnc(Nc3ccc(N4CCN(C)CC4)cc3)nc2n1-c1cccc(C(C)(C)O)n1 [Adavosertib] + Cc1nc(Nc2ncc(C(=O)Nc3c(C)cccc3Cl)s2)cc(N2CCN(CCO)CC2)n1 [Dasatinib] (partner 0.075 µM); assay: as above; conditions: first compound 0.01 µM
How it was run: as §1

| Cell Line | relative viability |
| --- | --- |
| 201T | 0.544 |
| A-427 | 0.715 |
| ABC-1 | 0.551 |
| BEN | 0.294 |
| CAL-12T | 0.501 |
| COR-L23 | 0.63 |
| COR-L 105 | 0.285 |
| ChaGo-K-1 | 0.641 |
| EKVX | 0.534 |
| EPLC-272H | 0.312 |
| H3255 | 0.347 |
| HARA | 0.258 |
| HCC-15 | 0.577 |
| HCC-78 | 0.389 |
| HCC-366 | 0.668 |
| HCC-827 | 0.282 |
| HOP-62 | 0.693 |
| LC-2-ad | 0.539 |
| LCLC-97TM1 | 0.881 |
| LCLC-103H | 0.422 |
| LK-2 | 0.286 |
| LOU-NH91 | 0.539 |
| LU99A | 0.472 |
| LXF-289 | 0.309 |
| NCI-H23 | 0.737 |
| NCI-H322M | 0.238 |
| NCI-H358 | 0.159 |
| NCI-H441 | 0.5 |
| NCI-H1563 | 0.462 |
| NCI-H1623 | 0.451 |

same assay, conditions: first compound 0.03162 µM

| Cell Line | relative viability |
| --- | --- |
| 201T | 0.524 |
| A-427 | 0.709 |
| ABC-1 | 0.594 |
| BEN | 0.295 |
| CAL-12T | 0.416 |
| COR-L23 | 0.459 |
| COR-L 105 | 0.308 |
| ChaGo-K-1 | 0.602 |
| EKVX | 0.602 |
| EPLC-272H | 0.339 |
| H3255 | 0.382 |
| HARA | 0.249 |
| HCC-15 | 0.569 |
| HCC-78 | 0.44 |
| HCC-366 | 0.631 |
| HCC-827 | 0.284 |

| Cell Line | relative viability |
| --- | --- |
| HOP-62 | 0.678 |
| LC-2-ad | 0.654 |
| LCLC-97TM1 | 0.675 |
| LCLC-103H | 0.44 |
| LK-2 | 0.229 |
| LOU-NH91 | 0.565 |
| LU99A | 0.51 |
| LXF-289 | 0.22 |
| NCI-H23 | 0.838 |
| NCI-H322M | 0.225 |
| NCI-H358 | 0.144 |
| NCI-H441 | 0.511 |
| NCI-H1563 | 0.432 |
| NCI-H1623 | 0.553 |
| NCI-H1792 | 0.753 |

same assay, conditions: first compound 0.1 µM

| Cell Line | relative viability |
| --- | --- |
| 201T | 0.568 |
| A-427 | 0.805 |
| ABC-1 | 0.677 |
| BEN | 0.297 |
| CAL-12T | 0.438 |
| COR-L23 | 0.517 |
| COR-L 105 | 0.331 |
| ChaGo-K-1 | 0.56 |
| EKVX | 0.538 |
| EPLC-272H | 0.363 |
| H3255 | 0.352 |
| HARA | 0.283 |
| HCC-15 | 0.574 |
| HCC-78 | 0.418 |
| HCC-366 | 0.736 |
| HCC-827 | 0.264 |

| Cell Line | relative viability |
| --- | --- |
| HOP-62 | 0.644 |
| LC-2-ad | 0.582 |
| LCLC-97TM1 | 0.886 |
| LCLC-103H | 0.435 |
| LK-2 | 0.291 |
| LOU-NH91 | 0.622 |
| LU99A | 0.532 |
| LXF-289 | 0.213 |
| NCI-H23 | 0.788 |
| NCI-H322M | 0.247 |
| NCI-H358 | 0.149 |
| NCI-H441 | 0.575 |
| NCI-H1563 | 0.437 |
| NCI-H1623 | 0.507 |
| NCI-H1792 | 0.942 |

same assay, conditions: first compound 0.3162 µM

| Cell Line | relative viability |
| --- | --- |
| 201T | 0.463 |
| A-427 | 0.425 |
| ABC-1 | 0.563 |
| BEN | 0.302 |
| CAL-12T | 0.222 |
| COR-L23 | 0.239 |
| COR-L 105 | 0.246 |
| ChaGo-K-1 | 0.535 |
| EKVX | 0.52 |
| EPLC-272H | 0.205 |
| H3255 | 0.352 |
| HARA | 0.338 |
| HCC-15 | 0.643 |
| HCC-78 | 0.401 |
| HCC-366 | 0.63 |
| HCC-827 | 0.282 |

| Cell Line | relative viability |
| --- | --- |
| HOP-62 | 0.661 |
| LC-2-ad | 0.493 |
| LCLC-97TM1 | 0.801 |
| LCLC-103H | 0.356 |
| LK-2 | 0.359 |
| LOU-NH91 | 0.513 |
| LU99A | 0.355 |
| LXF-289 | 0.243 |
| NCI-H23 | 0.412 |
| NCI-H322M | 0.255 |
| NCI-H358 | 0.139 |
| NCI-H441 | 0.396 |
| NCI-H1563 | 0.466 |
| NCI-H1623 | 0.575 |
| NCI-H1792 | 0.865 |
